From patent US20200017496A1 (priority 2017, published 2020)
In brackets after ≈: the same amount, converted by molar mass.

Key:
[1] = Hydrolysis kinetics in buffers at 37° C., 4 μg/ml (LC-MS, Method 8); assay type: physicochemical
Experimental: (§1) Method 8: Hydrolysis Kinetics in Buffers or Plasma Samples at 37° C., 4 μg/ml (Table 9)
(§2) Test compounds were prepared in DMSO at 0.8 mg/ml (relative to the acid AF1). To obtain a concentration of 4 μg/ml, one microliter of test compounds or AF1 was dissolved in 199 μl of buffer or blank plasma. For test compounds, plasma samples and/or buffer samples were kept at 37° C. during 2 h, and 20 μL of mixture were collected at 0 minutes (before heating to 37° C.), 5 minutes, 10 minutes, 20 minutes, 30 minutes, 45 minutes, 60 minutes and 120 minutes. For AF1, 20 μl of plasma samples and/or buffer samples were collected at 0 minutes. All plasma samples were protein precipitated using 3-25 fold volume of acetonitrile, shaken and centrifuged for 20 minutes at 15 000×g, diluted with a varying volume of deionized water. All buffer samples were diluted with a varying volume of deionized water/acetonitrile. The formation of AF1 from test compounds was quantified using LC-MS/MS.

[2] = Hydrolysis kinetics in buffers at room temperature by 19F-NMR, 1 mg/ml (Method 9); assay type: physicochemical
Experimental: Method 9: Hydrolysis Kinetics in Buffers at Room Temperature by ^19F-NMR, 1 mg/ml (Table 9)
Samples were prepared by solubilizing the ester compound (1 mg) in 900 μL of D2O and 100 μL of adequate buffer (Citrate 100 mM pH 5, Phosphate 100 mM pH 6 and Phosphate 100 mM pH 7.4). After a short sonication to fasten solubilization, the hydrolysis curve of the esters was generated by measuring and comparing the ^19F-NMR signal integrations of both species (ester compound disappearing and the acid form AF1 appearing). T10 and T50, times for respectively 10% and 50% of ester hydrolysis, were determined by interpolation of the hydrolysis curves.

[3] = Aqueous solubility by visual inspection (Method 12); details: for solubility: water, thermodynamic from solid
in vitro = in vitro ADME; details: plasma
Experimental: as §1, §2

SMILES | Hydrolysis at 4 μg/ml at 37° C. (LC-MS) T50 (50% degradation time) ([1]; Citrate 10 mM pH 5.0) [min] | Hydrolysis at 4 μg/ml at 37° C. (LC-MS) T50 (50% degradation time) ([1]; Phosphate 10 mM pH 6.0) [min] | Hydrolysis at 4 μg/ml at 37° C. (LC-MS) T50 (50% degradation time) ([1]; Phosphate 10 mM pH 7.4) [min] | Hydrolysis at 1 mg/ml at room Temperature (NMR) T10 (10% degradation time) ([2]; Citrate 10 mM pH 5.0) [min] | Hydrolysis at 1 mg/ml at room Temperature (NMR) T50 (50% degradation time) ([2]; Citrate 10 mM pH 5.0) [h] | solubility [3] [µg/mL] | half-life at 4 µg/ml (in vitro; dog) [min] | half-life at 4 µg/ml (in vitro; human) [min] | half-life at 4 µg/ml (in vitro; mouse) [min] | half-life at 4 µg/ml (in vitro; rat) [min] | Hydrolysis at 1 mg/ml at room Temperature (NMR) T10 (10% degradation time) ([2]; Phosphate 10 mM pH 6.0) [min] | Hydrolysis at 1 mg/ml at room Temperature (NMR) T50 (50% degradation time) ([2]; Phosphate 10 mM pH 6.0) [h] | Hydrolysis at 1 mg/ml at room Temperature (NMR) T10 (10% degradation time) ([2]; Phosphate 10 mM pH 7.4) [min] | Hydrolysis at 1 mg/ml at room Temperature (NMR) T50 (50% degradation time) ([2]; Phosphate 10 mM pH 7.4) [h] | Aqueous Solubility at room temperature in H2O ([3]; room temperature, H2O, visual inspection)
CCOC(=O)C(F)(F)ON1C(=O)N2C[C@H]1CC[C@H]2C(N)=O [AF1-Et] | <1 | <1 | <1 | 9 | 1 | > 1000 |  |  |  |  |  |  |  |  | 
COCC(C)(C)OC(=O)C(F)(F)ON1C(=O)N2C[C@H]1CC[C@H]2C(N)=O [Example 7, (2-methoxy-1,1-dimethyl-ethyl) 2-[[(2S,5R)-2-carbamoyl-7-oxo-1,6-diazabicyclo[3.2.1]octan-6-yl]oxy]-2,2-difluoro-acetate] | 109 |  | 23 | 210 | 27 | 6000 (≈ 16.4 mM) | 4 | 7 | < 1 | < 1 | 120 | 20 | 37 | 3.2 | 
COCCCC(C)(C)OC(=O)C(F)(F)ON1C(=O)N2C[C@H]1CC[C@H]2C(N)=O [Example 14, (4-methoxy-1,1-dimethyl-butyl) 2-[[(2S,5R)-2-carbamoyl-7-oxo-1,6-diazabicyclo[3.2.1]octan-6-yl]oxy]-2,2-difluoro-acetate] | <5 | <5 | <5 | 5 | 0.45 | 5100 (≈ 13 mM) |  |  |  |  | <25 | <2 | 7 | 0.567 | 
CCCN(CCC)[C@H]1CC[C@H](OC(=O)C(F)(F)ON2C(=O)N3C[C@H]2CC[C@H]3C(N)=O)CC1 [Example 15, [4-(dipropylamino)cyclohexyl]2-[[(2S,5R)-2-carbamoyl-7-oxo-1,6-diazabicyclo[3.2.1]octan-6-yl]oxy]-2,2-difluoro-acetate] | <1 | <1 | <1 | 7 | 0.567 | > 1000 |  |  |  |  |  |  |  |  | 
NC(=O)[C@@H]1CC[C@@H]2CN1C(=O)N2OC(F)(F)C(=O)OC1C2CC3CC(C2)CC1C3 (stereo partly drawn) [Example 3, 2-adamantyl 2-[[(2S,5R)-2-carbamoyl-7-oxo-1,6-diazabicyclo[3.2.1]octan-6-yl]oxy]-2,2-difluoro-acetate] |  |  |  |  |  |  |  |  |  |  |  |  |  |  | Low solubility
COCCOCC(C)(C)OC(=O)C(F)(F)ON1C(=O)N2C[C@H]1CC[C@H]2C(N)=O [Example 9] |  |  |  | 192 | 20 | 6900 (≈ 16.9 mM) |  |  |  |  | 138 | 17 | 21 | 2.6 | 
COCC(C)(COC)OC(=O)C(F)(F)ON1C(=O)N2C[C@H]1CC[C@H]2C(N)=O [Example 10, [2-methoxy-1-(methoxymethyl)-1-methyl-ethyl]2-[[(2S,5R)-2-carbamoyl-7-oxo-1,6-diazabicyclo[3.2.1]octan-6-yl]oxy]-2,2-difluoro-acetate] |  |  |  | 210 | 32 | 4500 (≈ 11.4 mM) |  |  |  |  | 90 | 16 | 12 | 1 | 
NC(=O)[C@@H]1CC[C@@H]2CN1C(=O)N2OC(F)(F)C(=O)OC1CCOCC1 [Example 12, tetrahydropyran-4-yl 2-[[(2S,5R)-2-carbamoyl-7-oxo-1,6-diazabicyclo[3.2.1]octan-6-yl]oxy]-2,2-difluoro-acetate] | <1 | <1 | <1 | 15 | 1.3 | 500 to 1000 (≈ 1.38 to 2.75 mM) |  |  |  |  |  |  |  |  | 
COCC(COC)OC(=O)C(F)(F)ON1C(=O)N2C[C@H]1CC[C@H]2C(N)=O [Example 13, [2-methoxy-1-(methoxymethyl)ethyl]2-[[(2S,5R)-2-carbamoyl-7-oxo-1,6-diazabicyclo[3.2.1]octan-6-yl]oxy]-2,2-difluoro-acetate] | <1 | <1 | <1 | 8 | 0.933 | > 1000 |  |  |  |  |  |  |  |  | 
COCC1(OC(=O)C(F)(F)ON2C(=O)N3C[C@H]2CC[C@H]3C(N)=O)CCOCC1 [Example 11, [4-(methoxymethyl)tetrahydropyran-4-yl]2-[[(2S,5R)-2-carbamoyl-7-oxo-1,6-diazabicyclo[3.2.1]octan-6-yl]oxy]-2,2-difluoro-acetate] |  |  |  | 372 | >41 | 1300 (≈ 3.19 mM) |  |  |  |  | 120 | 16 | 15 | 1.3 | 
CC1(OC(=O)C(F)(F)ON2C(=O)N3C[C@H]2CC[C@H]3C(N)=O)CCOCC1 [Example 8, (4-methyltetrahydropyran-4-yl) 2-[[(2S,5R)-2-carbamoyl-7-oxo-1,6-diazabicyclo[3.2.1]octan-6-yl]oxy]-2,2-difluoro-acetate] | >120 |  | 39 | 402 | 43 | 1000 (≈ 2.65 mM) | 8 | 11 | < 1 | < 1 | 162 | 21 | 40 | 4.5 | 
